Results reported in patent publication US20130184338A1, “PHENYLPROPYL CARBAMATE DERIVATIVES FOR USE IN PREVENTING OR TREATING MULTIPLE SCLEROSIS” (Bio-Pharm Solutions Co., Ltd., priority 2011, published 2013).
Where “and” joins values, the source holds several entries; their conditions need not be identical. Identical values can stand only once. Entries after “also recorded” stand apart in the source; their conditions may differ. Like-named read-outs stand apart in the source and are kept apart here.

Tests used:
[1] = tested on: male mice (ICR); test: Muscle relaxation: endurance time on rotarod rotating at accelerated speed; assay type: in vivo; settings: Mus musculus, ip; intraperitoneal, at time of maximum effect; 50% of activity vs vehicle only; read-out: MR test ED50, I = Acc. Rotarod
Experimental: (§1) For testing, male mice (ICR) were purchased from ORIENT BIO INC. (Korea), divided into several groups with 6 mice in each group, and were adapted for 4-5 days. The mice having the weight ranging from 19 g to 26 g were employed for the test. The pharmacological effect of the test compounds on muscle relaxation was evaluated by Rotarod test, grip strength test, and muscular force (wire hang) test. All mice were adapted to the test environment at one hour before starting the tests. The pharmacological effects of all the test compounds were evaluated by administration through peritoneal cavity of the mice (10 ul/g, bw).
At 24 hours before testing, the mice to be tested were preliminarily trained for 5 minutes on a rod rotating at the rate of 6 revolutions per a minute. The pharmacological effect on muscle relaxation of the test compounds were evaluated by observing the mice on a rod for 5 minutes, where the rod was accelerated from 4 to 40 revolutions per a minute during the test time. The endurance time that each mouse endures on the acceleratedly rotated rod without falling off from the rod was recorded. As test time for evaluation, a maximum of 5 minutes was applied. […] This experimentation was conducted according to the method described in the reference, ‘Monville et al. (2006) Comparison of incremental and accelerating protocol of the rotarod test for the assessment of motor deficits in the 6-OHDA model. J. Neurosci. Meth. 158: 219-223’.
(§2) The results of muscle relaxation activity of the phenyl carbamate compounds measured in above Experimental Examples 11.2 to 11.5 are shown in following Table 5.

[2] = tested on: male mice (ICR); test: Muscle relaxation: residence time on rotarod rotating at fixed speed (15 r.p.m.); assay type: in vivo; settings: Mus musculus, ip; intraperitoneal, at time of maximum effect; 50% of activity vs vehicle only; read-out: MR test ED50, II = Fixed 15 r.p.m. Rotarod
[3] = tested on: male mice (ICR); test: Muscle relaxation: grip strength; assay type: in vivo; settings: Mus musculus, ip; intraperitoneal, at time of maximum effect; 50% of activity vs vehicle only; read-out: MR test ED50, III = Grip strength
Experimental: as §1
A grip strength test using the test animals' forelimbs was performed using an instrument equipped with triangle ring and designed so as to easily grip with the forelimbs of experimental animals, manufactured from Ugo Basile Inc. (Ugo Basile, Model47106, Italy). The test was conducted before and after administration of the compounds to evaluate the effects thereof. […] The mouse was made to grip the rod with its forelimbs, and its tail was pulled, where the force at which the mouse detached from the rod was recorded. The instrument indicated the force in grams. All of the mice were given […] for test, and the 3 highest values among the test opportunities were selected and the mean value was used as the test result. This experimentation was conducted according to the method described in the reference, ‘Nevins et al. (1993) Quantitative grip strength assessment as a means of evaluating muscle relaxation in mice. Psychopharmacol. 110: 92-96’.
as §2

[4] = tested on: male mice (ICR); test: Muscle relaxation: wire hang; assay type: in vivo; settings: Mus musculus; intraperitoneal, at time of maximum effect; 50% of activity vs vehicle only; read-out: MR test ED50, IV = Wire hang
Experimental: as §1
This experimentation was conducted using a metal wire of 30 cm in length, which was suspended between two pillars at a height of about 40 cm from the bottom covered with a soft pad. […] Each mouse was made to grip the wire using two forelimbs, and the elapse time before the mouse fell off from the wire to the pad on the bottom was recorded in seconds. Each mouse was given 5 opportunities for this test at an interval of 2 minutes period. The highest 3 records among the test opportunities were selected and the mean value was used as the test result. This experimentation was conducted according to the method described in the reference, ‘Jacqueline N. Crawley (1999) Behavioral phenotyping of transgenic and knockout mice: experimental design and evaluation of general health, sensory functions, motor abilities, and specific behavioral tests. Brain Res. 835: 18-26’.
as §2

[5] = tested on: male ICR mice; test: MES (Maximal Electroshock Seizure) test in mice; settings: for ED50: Mus musculus, po
[6] = tested on: male SD rats; test: MES (Maximal Electroshock Seizure) test in rats; settings: for ED50: Rattus norvegicus, po, read-out: Duration of MES test ED50
[7] = tested on: MOG EAE rat; test: Anti-multiple sclerosis activity by MOG EAE rat

`C[C@H](OC(N)=O)[C@@H](O)c1ccccc1Cl` [Compound 1, 1-(2-chlorophenyl)-(S)-1-hydroxypropyl-(S)-2-carbamate] gave an ED50 [1] of 39.7 mg/kg, an ED50 [2] of 23.3 mg/kg and an ED50 [3] of 40.9 mg/kg. It also gave an ED50 [4] of 13.3 mg/kg, an ED50 ([5]; 0.25 h, read-out: Duration of MES test ED50) of 21.2 mg/kg and an ED50 ([5]; 0.5 h, read-out: Duration of MES test ED50) of 22.5 mg/kg. The ED50 ([5]; 1 h, read-out: Duration of MES test ED50) was 13.3 mg/kg, the ED50 ([5]; 2 h, read-out: Duration of MES test ED50) was 13 mg/kg and the ED50 ([5]; 3 h, read-out: Duration of MES test ED50) was 14.7 mg/kg. The ED50 ([5]; 4 h, read-out: Duration of MES test ED50) was 18.7 mg/kg, the ED50 ([5]; 6 h, read-out: Duration of MES test ED50) was 30 mg/kg and the ED50 ([5]; 8 h, read-out: Duration of MES test ED50) was 49.4 mg/kg. For the same compound, the ED50 ([5]; 12 h, read-out: Duration of MES test ED50) was 119 mg/kg, the ED50 ([5]; read-out: MES test (po) ED50) was 13 mg/kg and the “efficacy duration time (MES)” value ([5]; mice, oral) was “at least 12 hours”. The ED50 ([6]; 0.5 h) was 5.9 mg/kg, the ED50 ([6]; 1 h) was 3.3 mg/kg and the ED50 ([6]; 2 h) was 1.4 mg/kg. The ED50 ([6]; 4 h) was 6.9 mg/kg, the ED50 ([6]; 12 h) was 36.1 mg/kg and the “efficacy duration time (MES)” value ([6]; rats, oral) was “at least 12 hours”. The “body weight gain vs vehicle group” value ([7]; 3, 10 and 50 mg/kg p.o. twice a day, days 0-30, p>0.05) was “gained weight similarly than vehicle group”, the Disease incidence ([7]; all groups (3, 10, 50 mg/kg p.o. twice a day, days 0-29)) was 100% and the mortality ([7]; rat, in vivo) was 0.0% and 5.0%. For the same compound, the “CD68 immunoreactivity (% of white matter area) vs vehicle” value ([7]; spinal cord C segment, 50 mg/kg, day 30, p<0.05, 50 mg/kg) was “significantly smaller than in vehicle group; also recorded: reduced immunoreactivity”, the “CD68 immunoreactivity (% of white matter area) vs vehicle” value ([7]; spinal cord T segment, all doses, day 30) was “significantly less immunoreactivity; also recorded: significantly reduced immunoreactivity” and the “CD68 immunoreactivity (% of white matter area) vs vehicle” value ([7]; spinal cord combined C+T segments, all doses, day 30) was “significantly less immunoreactivity; also recorded: significantly reduced immunoreactivity”. For the same compound, the “demyelination area (% of white matter area) vs vehicle” value ([7]; spinal cord, all doses (3, 10, 50 mg/kg), all segments, day 30, MBP staining) was “significantly less demyelination than vehicle treated animals; also recorded: significantly diminished demyelinated lesion volumes”.
